In brackets after ≈: the same amount, converted by molar mass. Several values for one entry are separate records, joined by “and”; a condition that tells them apart may be missing. Equal entries are not always repeated.
What was measured:
[1] = Solubility of compound by lyophilisation solubility assay; assay type: physicochemical
[2] = Octanol/water distribution co-efficient, log D of the compound at pH 7.4; assay type: physicochemical
[3] = biological target: Gamma-secretase; assay: (§1) Modulation of gamma secretase in human H4 cells over expressing human APP695 harboring K595N/M596L Swedish double mutant assessed as reduction in Abeta42 production after 24 hrs by Alphalisa assay; assay type: cell-based
[4] = Fraction unbound in human plasma; assay type: ADME, cell-free
[5] = Clearance in human hepatocytes assessed per million cells; assay type: ADME, cell-based, Hepatocyte; settings: read-out: CLH
[6] = biological target: Phosphatidylinositol 4-kinase beta (Homo sapiens, UniProt Q9UBF8); assay: Binding affinity to PIK4CB (unknown origin); assay type: ADME
Sequence of Phosphatidylinositol 4-kinase beta (Q9UBF8 whole entry): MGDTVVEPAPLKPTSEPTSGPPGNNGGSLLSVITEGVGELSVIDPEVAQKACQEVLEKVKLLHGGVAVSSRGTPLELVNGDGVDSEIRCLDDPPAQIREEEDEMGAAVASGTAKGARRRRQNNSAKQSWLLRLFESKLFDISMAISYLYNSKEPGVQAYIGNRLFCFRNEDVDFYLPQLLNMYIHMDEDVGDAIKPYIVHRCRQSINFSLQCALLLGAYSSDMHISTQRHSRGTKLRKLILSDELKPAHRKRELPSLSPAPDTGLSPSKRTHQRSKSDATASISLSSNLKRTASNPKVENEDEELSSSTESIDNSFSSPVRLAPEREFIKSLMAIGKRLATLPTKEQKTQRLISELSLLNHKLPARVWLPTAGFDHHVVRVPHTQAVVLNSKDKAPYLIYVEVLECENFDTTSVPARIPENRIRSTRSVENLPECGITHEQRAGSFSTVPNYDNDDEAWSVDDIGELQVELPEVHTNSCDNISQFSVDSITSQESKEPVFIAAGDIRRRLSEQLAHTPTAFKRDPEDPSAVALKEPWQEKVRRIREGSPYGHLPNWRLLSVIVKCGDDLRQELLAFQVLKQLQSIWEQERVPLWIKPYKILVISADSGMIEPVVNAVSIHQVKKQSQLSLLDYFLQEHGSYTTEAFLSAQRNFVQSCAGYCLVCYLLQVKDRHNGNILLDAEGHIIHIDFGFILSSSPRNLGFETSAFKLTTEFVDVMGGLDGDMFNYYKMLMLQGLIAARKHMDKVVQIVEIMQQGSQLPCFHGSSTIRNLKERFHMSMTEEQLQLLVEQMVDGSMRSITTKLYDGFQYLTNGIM

[7] = Clearance in mouse hepatocytes assessed per million cells; assay type: ADME, cell-based, Hepatocyte; settings: read-out: CLH
[8] = (§2) Modulation of mouse gamma secretase assessed as reduction in Abeta42 production
[9] = Fraction unbound in mouse plasma; assay type: ADME, cell-free
[10] = Ratio of IC50 for dark toxicity in human Melanocytes to IC50 for phototoxicity in human Melanocytes in presence of UVA at 320 to 400 nm; assay type: cell-based, Melanocyte; settings: read-out: Ratio IC50
[11] = test system: Mus musculus; assay: In vivo modulation of gamma secretase in APP-Swedish transgenic mouse assessed as reduction in Abeta42 production by measuring remaining Abeta42 level at 10 mg/kg, po measured after 4 hrs by ELISA or AlphaLISA assay relative to control; assay type: functional
[12] = test system: Melanocyte; assay: Phototoxicity in human Melanocytes in presence of UVA at 320 to 400 nm; assay type: cell-based; settings: light or radiation study
[13] = test system: Mus musculus; assay: In vivo modulation of gamma secretase in APP-Swedish transgenic mouse assessed as reduction in Abeta42 production by measuring remaining Abeta42 level at 1 mg/kg, po measured after 4 hrs by ELISA or AlphaLISA assay relative to control; assay type: functional
[14] = Covalent protein binding in human liver microsomes assessed per mg protein in presence of NADPH; assay type: ADME, Microsome
[15] = test system: Keratinocyte; assay: Phototoxicity in human Keratinocytes in presence of UVA at 320 to 400 nm; assay type: cell-based; settings: light or radiation study
[16] = Ratio of IC50 for dark toxicity in human Keratinocytes to IC50 for phototoxicity in human Keratinocytes in presence of UVA at 320 to 400 nm; assay type: cell-based, Keratinocyte; settings: read-out: Ratio IC50
[17] = biological target: hERG (KCNH2) (Homo sapiens, UniProt Q12809); assay: (§3) Inhibition of human ERG; settings: human
Sequence of hERG (KCNH2) (Q12809 whole entry): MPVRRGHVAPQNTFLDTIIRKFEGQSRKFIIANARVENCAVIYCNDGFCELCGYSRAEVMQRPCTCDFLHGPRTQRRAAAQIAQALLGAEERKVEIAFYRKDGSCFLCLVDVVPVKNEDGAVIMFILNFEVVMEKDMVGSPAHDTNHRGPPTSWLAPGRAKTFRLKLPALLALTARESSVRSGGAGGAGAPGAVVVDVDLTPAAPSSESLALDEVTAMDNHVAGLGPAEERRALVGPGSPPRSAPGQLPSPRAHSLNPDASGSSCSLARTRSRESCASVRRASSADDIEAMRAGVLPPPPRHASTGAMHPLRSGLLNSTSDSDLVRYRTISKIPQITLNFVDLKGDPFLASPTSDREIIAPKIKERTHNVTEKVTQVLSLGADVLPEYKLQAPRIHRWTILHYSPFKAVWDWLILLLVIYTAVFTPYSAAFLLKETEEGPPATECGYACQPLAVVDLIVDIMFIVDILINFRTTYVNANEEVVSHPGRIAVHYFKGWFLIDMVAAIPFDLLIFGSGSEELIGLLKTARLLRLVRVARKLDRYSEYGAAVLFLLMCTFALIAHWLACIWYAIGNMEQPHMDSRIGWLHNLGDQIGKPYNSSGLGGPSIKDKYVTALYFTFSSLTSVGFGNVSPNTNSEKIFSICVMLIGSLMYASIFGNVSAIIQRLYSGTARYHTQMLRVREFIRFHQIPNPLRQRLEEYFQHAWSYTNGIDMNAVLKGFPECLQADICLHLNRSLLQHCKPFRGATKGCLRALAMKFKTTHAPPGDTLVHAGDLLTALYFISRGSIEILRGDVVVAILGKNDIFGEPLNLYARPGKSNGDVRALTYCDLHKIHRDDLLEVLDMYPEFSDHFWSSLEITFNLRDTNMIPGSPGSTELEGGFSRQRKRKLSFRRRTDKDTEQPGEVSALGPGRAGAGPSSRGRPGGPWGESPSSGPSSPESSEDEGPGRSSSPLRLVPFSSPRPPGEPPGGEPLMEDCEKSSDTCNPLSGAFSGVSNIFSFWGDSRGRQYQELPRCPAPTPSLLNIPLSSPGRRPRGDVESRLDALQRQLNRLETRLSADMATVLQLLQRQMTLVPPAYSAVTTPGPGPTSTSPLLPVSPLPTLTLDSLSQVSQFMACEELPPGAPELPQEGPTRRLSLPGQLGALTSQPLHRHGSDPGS

[18] = biological target: Voltage-gated inwardly rectifying potassium channel KCNH2 (Homo sapiens, UniProt Q12809); assay: as §3
Sequence of Voltage-gated inwardly rectifying potassium channel KCNH2 (Q12809 whole entry): as above

[19] = test system: Mus musculus; assay: In vivo modulation of gamma secretase in APP-Swedish transgenic mouse assessed as reduction in Abeta42 production by measuring remaining Abeta42 level at 3 mg/kg, po measured after 4 hrs by ELISA or AlphaLISA assay relative to control; assay type: functional
[20] = organism: Mus musculus; assay: as §2
[21] = biological target: Gamma-secretase (Homo sapiens) (UniProt Q96BI3+Q9NZ42+Q8WW43+P49768+Q92542+P49810); assay: as §1; assay type: cell-based
[22] = Solubility in fed state simulated intestinal fluids; assay type: physicochemical; settings: simulated gi fluid
[23] = Thermodynamic solubility of the compound; assay type: physicochemical
[24] = Mutagenicity in Salmonella typhimurium by Ames test; assay type: toxicity; settings: salmonella enterica subsp. enterica serovar typhimurium
[25] = Fraction unbound in rat plasma; assay type: ADME, cell-free
[26] = Cytotoxicity against human embryonic stem cells assessed as reduction in cell viability; assay type: cell-based
[27] = Solubility of the compound in fasted state simulated intestinal fluid; assay type: physicochemical; settings: simulated gi fluid
[28] = Clearance in rat hepatocytes assessed per million cell; assay type: ADME, cell-based, Hepatocyte; settings: read-out: CLH

Cc1nnc(N2C[C@H]3CC[C@@H](C2)[C@@H]3Nc2nc3c(OC(C)C(F)(F)F)cccn3n2)o1 (stereo partly drawn)
solubility [1]: 346 µg/mL (≈ 791 µM) | logD [2]: 2.68 | IC50 [3]: 108 nM

Cc1cc(N2C[C@H]3CC[C@@H](C2)[C@@H]3Nc2nc3c(OCC(F)(F)F)ccc(C(F)(F)F)n3n2)sn1
fraction unbound [4]: 0.002 | solubility [1]: 0.6 µg/mL (≈ 1.18 µM) | hepatocyte CLint [5]: 2 µL/min/1e6 cells | Kd [6]: 40000 to 100000 nM | logD [2]: 4.1 | hepatocyte CLint [7]: 19 µL/min/1e6 cells | IC50 [8]: 2 nM | IC50 [3]: 2 nM

COc1cccn2nc(N[C@@H]3[C@@H]4CC[C@H]3CN(c3nc(C)ns3)C4)nc12
fraction unbound [4]: 0.12 | solubility [1]: 396 µg/mL (≈ 1070 µM) | hepatocyte CLint [5]: 10 µL/min/1e6 cells | logD [2]: 2.59 | fraction unbound [9]: 0.16 | hepatocyte CLint [7]: 27 µL/min/1e6 cells | IC50 [3]: 231 nM

Cc1cc(N2C[C@H]3CC[C@@H](C2)[C@@H]3Nc2nc3c(OCC(F)(F)C(F)(F)F)cccn3n2)on1
fraction unbound [4]: 0.02 | solubility [1]: 11 µg/mL (≈ 23.3 µM) | hepatocyte CLint [5]: 4 µL/min/1e6 cells | logD [2]: 4.1 | fraction unbound [9]: 0.032 | hepatocyte CLint [7]: 34 µL/min/1e6 cells | IC50 [8]: 3 nM | IC50 [3]: 7 nM

Cc1nsc(N2C[C@H]3CC[C@@H](C2)[C@@H]3Nc2nc3c(O[C@@H](C)C(F)(F)F)cccn3n2)n1
fraction unbound [4]: 0.028 | solubility [1]: 78 µg/mL (≈ 172 µM) | hepatocyte CLint [5]: 3.1 µL/min/1e6 cells | logD [2]: 3.69 | fraction unbound [9]: 0.06 | hepatocyte CLint [7]: 10 µL/min/1e6 cells | IC50 [3]: 16 nM

Cc1cc(N2C[C@H]3CC[C@@H](C2)[C@@H]3Nc2nc3c(OCC(F)(F)F)cccn3n2)sn1
fraction unbound [4]: 0.017 | selectivity ratio [10]: 1 | solubility [1]: 31 µg/mL (≈ 70.7 µM) | remaining Abeta42 level (% of control) [11]: >50% | IC50 [12]: > 137000 nM | hepatocyte CLint [5]: 3.3 µL/min/1e6 cells | Activity [13]: 75% | PB [14]: 96 pmol | IC50 [15]: > 137000 nM | Kd [6]: 120 nM | logD [2]: 3.9 to 3.99 | selectivity ratio [16]: 1 | fraction unbound [9]: 0.018 | hepatocyte CLint [7]: 15 µL/min/1e6 cells | IC20 [17]: 900 nM | IC50 [18]: 2900 nM | remaining Abeta42 level (% of control) [19]: >=47 - 50% | IC50 [8]: 4 nM | fIC50 [20]: 3 nM | fIC50 [21]: 3 nM | IC50 [3]: 4 nM

Cc1noc(N2C[C@H]3CC[C@@H](C2)[C@@H]3Nc2nc3c(OCC(F)(F)F)ccc(C(F)(F)F)n3n2)n1
fraction unbound [4]: 0.017 | solubility [1]: 55 µg/mL (≈ 112 µM) | solubility [22]: 92 µg/mL (≈ 187 µM) | IC50 [12]: 33000 nM | hepatocyte CLint [5]: 1 µL/min/1e6 cells | Therm solubility [23]: 5 µg/mL | IC50 [15]: 33000 nM | Activity [24]: Non-Toxic | fraction unbound [25]: 0.046 | Activity [26]: Non-Toxic | Kd [6]: > 40000 nM | logD [2]: 3.79 | solubility [27]: 12 µg/mL (≈ 24.4 µM) | hepatocyte CLint [28]: 6.9 µL/min/1e6 cells | fraction unbound [9]: 0.031 | hepatocyte CLint [7]: 8.5 µL/min/1e6 cells | IC20 [17]: 3500 nM | IC50 [18]: 8750 nM | IC50 [8]: 20 nM and 12 nM | fIC50 [21]: 21 nM | IC50 [3]: 33 nM

Cc1nsc(N2C[C@H]3CC[C@@H](C2)[C@@H]3Nc2nc3c(OCC(F)(F)F)cccn3n2)n1
fraction unbound [4]: 0.028 | selectivity ratio [10]: 1.1 | solubility [1]: 198 µg/mL (≈ 451 µM) | remaining Abeta42 level (% of control) [11]: 15% | IC50 [12]: 443000 nM | hepatocyte CLint [5]: 1.3 µL/min/1e6 cells | Activity [13]: 59% | PB [14]: 30 pmol | IC50 [15]: 443000 nM | Kd [6]: 150 nM | logD [2]: 3.17 | selectivity ratio [16]: 1.1 | fraction unbound [9]: 0.06 to 0.101 | hepatocyte CLint [7]: 4 to 6.4 µL/min/1e6 cells | IC20 [17]: 4500 nM | IC50 [18]: > 10000 nM | remaining Abeta42 level (% of control) [19]: 33% | IC50 [8]: 9 nM | fIC50 [20]: 5 nM | fIC50 [21]: 12 nM | IC50 [3]: 21 nM

Cc1nnc(N2C[C@H]3CC[C@@H](C2)[C@@H]3Nc2nc3c(OC(C)C(F)(F)F)ccc(C(F)(F)F)n3n2)o1 (stereo partly drawn)
fraction unbound [4]: 0.028 | solubility [1]: 77 µg/mL (≈ 152 µM) | hepatocyte CLint [5]: 1 µL/min/1e6 cells | Kd [6]: > 40000 nM | logD [2]: 3.58 | fraction unbound [9]: 0.044 | hepatocyte CLint [7]: 1.6 µL/min/1e6 cells | IC50 [8]: 20 nM | IC50 [3]: 27 nM

Cc1cc(N2C[C@H]3CC[C@@H](C2)[C@@H]3Nc2nc3c(O[C@@H](C)C(F)(F)F)cccn3n2)sn1
fraction unbound [4]: 0.01 | solubility [1]: 6.3 µg/mL (≈ 13.9 µM) | hepatocyte CLint [5]: 3.1 µL/min/1e6 cells | Kd [6]: 85 nM | logD [2]: 3.81 | fraction unbound [9]: 0.034 | hepatocyte CLint [7]: 36 µL/min/1e6 cells | IC50 [3]: 6 nM

O=S(=O)(N[C@H]1CC[C@@](c2cc(F)ccc2F)(S(=O)(=O)c2ccc(Cl)cc2)CC1)C(F)(F)F
remaining Abeta42 level (% of control) [11]: 24 - 28%

Cc1noc(N2C[C@H]3CC[C@@H](C2)[C@@H]3Nc2nc3c(OCC(F)(F)F)cccn3n2)n1
solubility [1]: 55 to 265 µg/mL (≈ 130 to 626 µM) | logD [2]: 1.79 | fraction unbound [9]: 0.095 | hepatocyte CLint [7]: 4.6 µL/min/1e6 cells | IC50 [8]: > 400 nM | IC50 [3]: 114 nM

Cc1nsc(N2C[C@H]3CC[C@@H](C2)[C@@H]3Nc2nc3c(OCCCC(F)(F)F)cccn3n2)n1
solubility [1]: 0.2 to 1 µg/mL (≈ 0.428 to 2.14 µM) | logD [2]: 3.76 to 3.9 | IC50 [3]: 14 nM

Cc1noc(N2C[C@H]3CC[C@@H](C2)[C@@H]3Nc2nc3c(OCC(F)(F)C(F)(F)F)cccn3n2)n1
fraction unbound [4]: 0.055 | solubility [1]: 144 µg/mL (≈ 304 µM) | hepatocyte CLint [5]: 1 µL/min/1e6 cells | logD [2]: 3.57 | fraction unbound [9]: 0.061 | hepatocyte CLint [7]: 11 µL/min/1e6 cells | IC50 [8]: 17 nM | IC50 [3]: 20 nM

FC(F)(F)COc1cccn2nc(N[C@@H]3[C@@H]4CC[C@H]3CN(c3ccnc(C(F)(F)F)c3)C4)nc12
fraction unbound [4]: 0.012 | solubility [1]: 11 µg/mL (≈ 22.6 µM) | hepatocyte CLint [5]: 1 µL/min/1e6 cells | Kd [6]: 250 nM | logD [2]: 4.04 | fraction unbound [9]: 0.02 | hepatocyte CLint [7]: 9 µL/min/1e6 cells | IC50 [8]: 21 nM | IC50 [3]: 24 nM

Cc1nsc(N2C[C@H]3CC[C@@H](C2)[C@@H]3Nc2nc3c(OCC4COC4)cccn3n2)n1
solubility [1]: 456 µg/mL (≈ 1070 µM) | logD [2]: 2.26 | IC50 [3]: 49 nM

Cc1nsc(N2C[C@H]3CC[C@@H](C2)[C@@H]3Nc2nc3c(OC(F)(F)F)cccn3n2)n1
solubility [1]: 102 µg/mL (≈ 240 µM) | logD [2]: 3.3 | IC50 [3]: 61 nM

Cc1nsc(N2C[C@H]3CC[C@@H](C2)[C@@H]3Nc2nc3c(OCCC(F)(F)F)cccn3n2)n1
fraction unbound [4]: 0.03 | solubility [1]: 1.7 µg/mL (≈ 3.75 µM) | hepatocyte CLint [5]: 1.3 µL/min/1e6 cells | logD [2]: 3.36 | fraction unbound [9]: 0.0521 | hepatocyte CLint [7]: 21 µL/min/1e6 cells | IC50 [3]: 14 nM

Reference: ChEMBL document CHEMBL4619803, “Stepwise Design of γ-Secretase Modulators with an Advanced Profile by Judicious Coordinated Structural Replacements and an Unconventional Phenyl Ring Bioisostere” (J Med Chem, 2020)
